Reference: ChEMBL document CHEMBL6127088, “Novel 2-aminothiazole analogues both as polymyxin E synergist and antimicrobial agent against multidrug-resistant Gram-positive bacteria” (2024)
Converted amounts (≈) assume the structure as drawn. The source made the active and inactive calls. The rule behind the calls is not given here.

Legend:
[1] = test system: Acinetobacter baumannii; test: Antibacterial activity against Acinetobacter baumannii ATCC 19606 assessed as inhibition of bacterial growth at 4 microg/ml incubated for overnight in presence of 0.25 microg/ml polymyxin-E and measured with in 8 hrs by time-kill assay; format: functional, organism-based; details: dose 4.0 µg/ml
[2] = test system: Lacticaseibacillus rhamnosus; test: Antibacterial activity against Lactobacillus rhamnosus assessed as inhibition of bacterial growth incubated for 18 hrs by broth microdilution method; format: functional
[3] = test system: Klebsiella pneumoniae; test: Synergistic antibacterial activity against Klebsiella pneumoniae KPN 943 assessed as fold change in polymyxin-E MIC incubated for 18 hrs by broth microdilution method relative to polymyxin-E alone; format: functional
[4] = test system: Klebsiella pneumoniae; test: Synergistic antibacterial activity against Klebsiella pneumoniae KPN 1617 assessed as fractional inhibitory concentration index at 4 microg/ml incubated for 18 to 20 hrs by chequerboard assay; format: functional; details: dose 4 µg/ml; time 18-20 hrs
[5] = test system: Enterococcus faecalis; test: Antibacterial activity against Enterococcus faecalis ATCC 51299 assessed as inhibition of bacterial growth incubated for 18 hrs by broth microdilution method; format: functional
[6] = test system: Klebsiella pneumoniae; test: Synergistic antibacterial activity against Klebsiella pneumoniae SIPI-KPN-1712 assessed as fold change in polymyxin-E MIC incubated for 18 hrs by broth microdilution method relative to polymyxin-E alone; format: functional
[7] = test system: Acinetobacter baumannii; test: Synergistic antibacterial activity against Acinetobacter baumannii Ab 1611 assessed as fractional inhibitory concentration index at 4 microg/ml incubated for 18 to 20 hrs by chequerboard assay; format: functional; details: dose 4 µg/ml; time 18-20 hrs
[8] = test system: Klebsiella pneumoniae; test: Antibacterial activity against Klebsiella pneumoniae SIPI-KPN-1712 incubated for 18 hrs by broth microdilution method; format: functional
[9] = test system: Listeria monocytogenes; test: Antibacterial activity against Listeria monocytogenes assessed as inhibition of bacterial growth incubated for 18 hrs by broth microdilution method; format: functional
[10] = test system: Acinetobacter baumannii; test: Antibacterial activity against Acinetobacter baumannii Ab 1611 incubated for 18 hrs by broth microdilution method; format: functional
[11] = test system: Pseudomonas aeruginosa; test: Synergistic antibacterial activity against Pseudomonas aeruginosa PAE 1051 assessed as polymyxin-E MIC at 4 microg/ml incubated for 18 hrs by broth microdilution method; format: functional; details: dose 4 µg/ml
[12] = test system: Lactiplantibacillus plantarum; test: Antibacterial activity against Lactobacillus plantarum assessed as inhibition of bacterial growth incubated for 18 hrs by broth microdilution method; format: functional
[13] = test system: Cell membrane; test: Induction of outer membrane disruption in Acinetobacter baumannii ATCC 19606 assessed as decrease in fluorescence intensity in presence of polymyxin-E by NPN dye based fluorescence analysis; format: subcellular
[14] = test system: Staphylococcus aureus; test: Antibacterial activity against Staphylococcus aureus S1-1-65 assessed as inhibition of bacterial growth incubated for 18 hrs by broth microdilution method; format: functional
[15] = test system: Acinetobacter baumannii; test: Synergistic antibacterial activity against Acinetobacter baumannii Ab 1613 assessed as fold change in polymyxin-E MIC incubated for 18 hrs by broth microdilution method relative to polymyxin-E alone; format: functional
[16] = test system: Cell membrane; test: Disruption of cell membrane integrity in Acinetobacter baumannii ATCC 19606 assessed as cellular vacuolization at 4 microg/ml incubated for 1 hrs in presence of polymyxin-E by TEM analysis; format: subcellular; details: dose 4.0 µg/ml
[17] = test system: Enterococcus faecalis; test: Antibacterial activity against Enterococcus faecalis ATCC 29212 assessed as inhibition of bacterial growth incubated for 18 hrs by broth microdilution method; format: functional
[18] = test system: Klebsiella pneumoniae; test: Synergistic antibacterial activity against Klebsiella pneumoniae SIPI-KPN-1712 assessed as polymyxin-E MIC at 4 microg/ml incubated for 18 hrs by broth microdilution method; format: functional; details: dose 4 µg/ml
[19] = test system: Klebsiella pneumoniae; test: Synergistic antibacterial activity against Klebsiella pneumoniae KPN 1617 assessed as polymyxin-E MIC at 4 microg/ml incubated for 18 hrs by broth microdilution method; format: functional; details: dose 4 µg/ml
[20] = test system: Staphylococcus aureus; test: Antibacterial activity against Staphylococcus aureus NCTC 8325 assessed as inhibition of bacterial growth incubated for 18 hrs by broth microdilution method; format: functional
[21] = test system: Pseudomonas aeruginosa; test: Synergistic antibacterial activity against Pseudomonas aeruginosa […] assessed as fractional inhibitory concentration index at 4 microg/ml incubated for 18 to 20 hrs by chequerboard assay; format: functional; details: dose 4 µg/ml; time 18-20 hrs
[22] = test system: Acinetobacter baumannii; test: Antibacterial activity against Acinetobacter baumannii ATCC 19606 infected in female Balb/c mouse model assessed as increase in animal survival at 64 mg/kg, iv administered every 12 hrs and measured for 7 days; format: functional, organism-based
[23] = test system: Acinetobacter baumannii; test: Synergistic antibacterial activity against Acinetobacter baumannii Ab 1611 assessed as polymyxin-E MIC at 4 microg/ml incubated for 18 hrs by broth microdilution method; format: functional; details: dose 4 µg/ml
[24] = test system: Staphylococcus aureus; test: Antibacterial activity against Staphylococcus aureus S1-1-1 assessed as inhibition of bacterial growth incubated for 18 hrs by broth microdilution method; format: functional
[25] = test system: Staphylococcus aureus; test: Antibacterial activity against Staphylococcus aureus S1-1-7 assessed as inhibition of bacterial growth incubated for 18 hrs by broth microdilution method; format: functional
[26] = test system: Acinetobacter baumannii; test: Synergistic antibacterial activity against Acinetobacter baumannii ATCC 19606 assessed as polymyxin-E MIC at 4 microg/ml incubated for 18 hrs by broth microdilution method; format: functional; details: dose 4 µg/ml
[27] = test system: Pseudomonas aeruginosa; test: Synergistic antibacterial activity against Pseudomonas aeruginosa PAE 3887 assessed as polymyxin-E MIC at 4 microg/ml incubated for 18 hrs by broth microdilution method; format: functional; details: dose 4 µg/ml
[28] = test system: Pseudomonas aeruginosa; test: Synergistic antibacterial activity against Pseudomonas aeruginosa PAE 3887 assessed as fractional inhibitory concentration index at 4 microg/ml incubated for 18 to 20 hrs by chequerboard assay; format: functional; details: dose 4 µg/ml; time 18-20 hrs
[29] = test system: Staphylococcus aureus; test: Antibacterial activity against Staphylococcus aureus SF 8300 assessed as inhibition of bacterial growth incubated for 18 hrs by broth microdilution method; format: functional
[30] = test system: Acinetobacter baumannii; test: Antimicrobial activity against Acinetobacter baumannii ATCC 19606 incubated for 18 hrs by broth microdilution method; format: functional
[31] = test system: Cell membrane; test: Disruption of cell membrane integrity in Acinetobacter baumannii ATCC 19606 assessed as outer membrane expansion at 4 microg/ml incubated for 1 hrs by TEM analysis; format: subcellular; details: dose 4.0 µg/ml
[32] = test system: Pseudomonas aeruginosa; test: Antibacterial activity against Pseudomonas aeruginosa PAE 3887 incubated for 18 hrs by broth microdilution method; format: functional
[33] = test system: Acinetobacter baumannii; test: Antibacterial activity against Acinetobacter baumannii ATCC 19606 assessed as inhibition of bacterial growth at 4 microg/ml incubated for overnight in presence of 0.25 microg/ml polymyxin-E by time-kill assay; format: functional, organism-based; details: dose 4.0 µg/ml
[34] = test system: Cell membrane; test: Disruption of cell membrane integrity in Acinetobacter baumannii ATCC 19606 assessed as reduction in nucleoid boundaries at 4 microg/ml incubated for 1 hrs in presence of polymyxin-E by TEM analysis; format: subcellular; set-up: scale not given: the % may be the effect or the level left; details: dose 4.0 µg/ml
[35] = test system: Cell membrane; test: Disruption of cell membrane integrity in Acinetobacter baumannii ATCC 19606 assessed as cellular damage at 4 microg/ml incubated for 1 hrs by TEM analysis; details: dose 4.0 µg/ml
[36] = test system: Cell membrane; test: Disruption of cell membrane integrity in Acinetobacter baumannii ATCC 19606 assessed as cytoplasmic content leakage at 4 microg/ml incubated for 1 hrs in presence of polymyxin-E by TEM analysis; format: subcellular; details: dose 4.0 µg/ml
[37] = test system: Pseudomonas aeruginosa; test: Antibacterial activity against Pseudomonas aeruginosa PAE 1051 incubated for 18 hrs by broth microdilution method; format: functional
[38] = test system: Acinetobacter baumannii; test: Synergistic antimicrobial activity against Acinetobacter baumannii ATCC 19606 assessed as fractional inhibitory concentration index in presence of polymyxin E incubated for 18 to 20 hrs by chequerboard assay; format: functional; details: time 18-20 hrs
[39] = test system: Acinetobacter baumannii; test: Synergistic antibacterial activity against Acinetobacter baumannii ATCC 19606 infected in female Balb/c mouse model assessed as survival rate of mouse at 64 mg/kg, iv administered every 12 hrs in presence of polymyxin-E and measured for 7 days; format: functional

**Q.** Which results are given for `C/C(=N\Nc1ccccn1)c1csc(Nc2cc(F)cc(C(F)(F)F)c2)n1`?
**A.** Activity [1]: Active; MIC [2]: 0.5 µg/mL (≈ 1.26 µM); fold change (FC) [3]: 32; fractional inhibitory concentration index (FICI) [4]: 0.094; MIC [5]: 2 µg/mL (≈ 5.06 µM); fold change (FC) [6]: 16; fractional inhibitory concentration index (FICI) [7]: 0.094; MIC [8]: > 128 µg/mL; MIC [9]: 4 µg/mL (≈ 10.1 µM); MIC [10]: > 128 µg/mL; MIC [11]: 0.25 µg/mL; MIC [12]: 1 µg/mL (≈ 2.53 µM); Activity [13]: Active; MIC [14]: 4 µg/mL (≈ 10.1 µM); fold change (FC) [15]: 4; Activity [16]: Active; MIC [17]: 2 µg/mL (≈ 5.06 µM); MIC [18]: 2 µg/mL; MIC [19]: 0.5 µg/mL; MIC [20]: 0.5 µg/mL (≈ 1.26 µM); fractional inhibitory concentration index (FICI) [21]: 0.531; Activity [22]: inactive; MIC [23]: 0.063 µg/mL; MIC [24]: 1 µg/mL (≈ 2.53 µM); MIC [25]: 2 µg/mL (≈ 5.06 µM); MIC [26]: 0.031 µg/mL; MIC [27]: 0.125 µg/mL; fractional inhibitory concentration index (FICI) [28]: 0.094; MIC [29]: 1 µg/mL (≈ 2.53 µM); MIC [30]: 128 µg/mL (≈ 324 µM); Activity [31]: Active; MIC [32]: > 128 µg/mL; Activity [33]: Active; Activity [34]: 100%; Activity [35]: Active; Activity [36]: Active; MIC [37]: > 128 µg/mL; fractional inhibitory concentration index (FICI) [38]: 0.066; survival at 64 mg/kg [39]: 100%
